Assay results taken from article PMC12373846, “Hemoglobin as a pseudoperoxidase and drug target for oxidative stress-related diseases” (Signal Transduction and Targeted Therapy, 2025).

Key:
[1] = tested on: C57BL/6J mice; assay: PhenoMaster respiration and metabolic analysis; type: in vivo, mouse; set-up: energy expenditure (Fig. S8b) / total food consumption (Fig. S8c) / total drink consumption (Fig. S8d) / oxygen consumption (stats entry 2j): unit not given here
Method: For respiration and metabolic analysis, PhenoMaster (TSE Systems, Germany) was employed. All C57BL/6J mice aged 8–10 weeks underwent initial chamber habituation and gas calibration on day 0. Starting on day 3, the mice were administered KDS12025 dissolved in water at dosages of 0.1, 1, and 10 mg/kg/day (ad libitum drinking water). Respiratory and metabolic measurements, including oxygen consumption, carbon dioxide production, and the respiratory exchange ratio (RER, calculated as VCO2/VO2), as well as food and drink intake and energy expenditure, were conducted from day 4. The recording ends on day 8 with data collection.

[2] = tested on: A53T mice; assay: Immunohistochemistry of SNpc, A53T mice; type: in vivo, mouse; conditions: for mean GABA intensity in GFAP-positive areas: Fig. 4k; for TH-positive neuron counts per hemisphere: Fig. 4l
Method: Stereotaxic injections were performed to deliver the AAV-CMV-A53T virus or PBS (control) into the right SNpc (AP, −3.2 mm; ML, −1.3 mm; DV, −4.0 mm from the bregma) of the mice. The injections were administered at a rate of 0.2 μl/min, with a total volume of 1 μl. The procedure was conducted under general anesthesia induced by 1% isoflurane.
The mice were deeply anesthetized with 2% isoflurane and positioned on the operating table. After the abdomen was opened and the heart was exposed, the […] were perfused with saline, followed by 4% paraformaldehyde (PFA) in 0.1 M PBS. The mice were decapitated, and the brains were excised from the skull. Excised brains were postfixed in 4% PFA overnight at 4 °C and dehydrated in 30% sucrose for 48 h. Coronal hippocampal sections were cut at 30 µm thickness with a cryostat and stored in storage solution. For the ALS experiments, lumbar spinal cords (L2–L5) were also carefully dissected and immediately immersed in 4% PFA for postfixation. The sections were fully washed in 0.1 M PBS and incubated for 1 h in blocking solution (0.3% Triton X-100, 2% donkey and goat serum in 0.1 M PBS). Next, a mixture of primary antibodies in the blocking solution was used for immunostaining on a shaker overnight at 4 °C. The sections were washed in PBS three times. After washing, the sections were incubated with the corresponding fluorescent secondary antibodies for 1 h at RT. DAPI staining was performed by adding a DAPI solution (1:2000) during the second washing step. After the washing step was complete, the sections were mounted on cover slides with mounting medium. A series of fluorescence images were obtained with an LSM900 (Zeiss, Germany) confocal microscope or Lattice SIM Elyra 7 (Zeiss, Germany). The 15–22 μm Z stack images in 1–2 μm steps were processed for image analysis, which was performed via the ImageJ (NIH, US) and ZEN digital imaging for light microscopy blue system (Zeiss, Germany) programs. The primary antibodies used were as follows: chicken anti-GFAP (1:500, Millipore, ab5541), rabbit anti-amyloid beta (1:500, Abcam, ab2539), mouse anti-NeuN (1:200, Millipore, ab377), rabbit anti-Hbβ (1:200, Abcam, ab214049), mouse anti-Hbβ (1:200, Santacruz, sc-21757), mouse anti-MAOB (1:200, Santacruz, sc-515354), mouse anti-8-OhdG (1:500, Santacruz, sc-393871), rabbit anti-TH (1:500, Pelfreez, p40101), and mouse anti-TH (1:200, Sigma, T2928). The following secondary antibodies from Jackson were diluted (1:500) in blocking solution: donkey-anti-chicken 405, donkey-anti-chicken 647, donkey-anti-rabbit 488, donkey-anti-rabbit 594, donkey-anti-rabbit 647, donkey-anti-guinea pig 488, donkey-anti-guinea pig 647, donkey-anti-mouse 594, and donkey-anti-mouse 647. Serial confocal sections immunolabeled with GFAP were compiled into a maximal projection to assess the GFAP signal within the hippocampus (Z-stacked images, 15–22 μm Z stack images in 1–2 μm steps of brain sections). Sholl analysis, performed via the ImageJ plugin, automatically generated concentric circles with 10-μm spacing from the nucleus (soma) to the farthest astrocytic process. This analysis quantified the intersections of GFAP-labeled processes within each circle, calculating the ramification index and ending radius, enabling the evaluation of astrocytic hypertrophy and morphological changes, as previously described.[78] In the focal GiD mouse model, NeuN-positive CA1 pyramidal neurons were quantified within a 50 × 50 μm^2 region via ImageJ to determine the number of CA1 pyramidal neurons.
For the SNpc, astrocytes and dopaminergic neurons were analyzed separately. The SNpc region was manually reconstructed using anatomical landmarks and TH or GFAP signals. GFAP-positive astrocyte surfaces were reconstructed with surface details set to 0.6 μm, the diameter of the largest sphere at 2.0 μm, a manual threshold value minimum of 800, and diffusion transparency set to 60%. […]

SMILES: CNc1ccc(NCCc2ccccc2OC)cc1.Cl [KDS12025, N^1-(2-methoxyphenethyl)-N^4-methylbenzene-1,4-diamine hydrochloride salt]
- carbon dioxide production (stats entry 2k) ([1]; 0.1mpk, dark): 3345
- energy expenditure (Fig. S8b) ([1]; 0.1mpk, dark): 22.37±1.215
- oxygen consumption (stats entry 2j) ([1]; 0.1mpk, dark): 4228
- respiratory exchange ratio (stats entry 2l) ([1]; 0.1mpk, dark): 0.849
- total drink consumption (Fig. S8d) ([1]; 0.1mpk, dark): 0.1272±0.009
- total food consumption (Fig. S8c) ([1]; 0.1mpk, dark): 0.1543±0.018
- carbon dioxide production (stats entry 2k) ([1]; 0.1mpk, full day): 3292
- energy expenditure (Fig. S8b) ([1]; 0.1mpk, full day): 22.21±1.751
- oxygen consumption (stats entry 2j) ([1]; 0.1mpk, full day): 4161
- respiratory exchange ratio (stats entry 2l) ([1]; 0.1mpk, full day): 0.857
- total drink consumption (Fig. S8d) ([1]; 0.1mpk, full day): 0.108±0.005
- total food consumption (Fig. S8c) ([1]; 0.1mpk, full day): 0.126±0.0123
- carbon dioxide production (stats entry 2k) ([1]; 0.1mpk, light): 3065
- oxygen consumption (stats entry 2j) ([1]; 0.1mpk, light): 3923
- respiratory exchange ratio (stats entry 2l) ([1]; 0.1mpk, light): 0.833
- carbon dioxide production (stats entry 2k) ([1]; 1mpk, dark): 3167
- energy expenditure (Fig. S8b) ([1]; 1mpk, dark): 21.29±0.7258
- oxygen consumption (stats entry 2j) ([1]; 1mpk, dark): 4063
- respiratory exchange ratio (stats entry 2l) ([1]; 1mpk, dark): 0.891
- total drink consumption (Fig. S8d) ([1]; 1mpk, dark): 0.1220±0.0208
- total food consumption (Fig. S8c) ([1]; 1mpk, dark): 0.1761±0.0164
- carbon dioxide production (stats entry 2k) ([1]; 1mpk, full day): 3075
- energy expenditure (Fig. S8b) ([1]; 1mpk, full day): 21.26±0.07088
- oxygen consumption (stats entry 2j) ([1]; 1mpk, full day): 3871
- respiratory exchange ratio (stats entry 2l) ([1]; 1mpk, full day): 0.883
- total drink consumption (Fig. S8d) ([1]; 1mpk, full day): 0.0902±0.0248
- total food consumption (Fig. S8c) ([1]; 1mpk, full day): 0.166±0.03508
- carbon dioxide production (stats entry 2k) ([1]; 1mpk, light): 2916
- energy expenditure (Fig. S8b) ([1]; 1mpk, light): 19.95±0.3562
- oxygen consumption (stats entry 2j) ([1]; 1mpk, light): 3584
- respiratory exchange ratio (stats entry 2l) ([1]; 1mpk, light): 0.860
- total drink consumption (Fig. S8d) ([1]; 1mpk, light): 0.0790±0.0149
- total food consumption (Fig. S8c) ([1]; 1mpk, light): 0.1032±0.009
- carbon dioxide production (stats entry 2k) ([1]; 10mpk, dark): 3344
- energy expenditure (Fig. S8b) ([1]; 10mpk, dark): 20.73±0.9735
- oxygen consumption (stats entry 2j) ([1]; 10mpk, dark): 4216
- respiratory exchange ratio (stats entry 2l) ([1]; 10mpk, dark): 0.877
- total drink consumption (Fig. S8d) ([1]; 10mpk, dark): 0.1041±0.0394
- total food consumption (Fig. S8c) ([1]; 10mpk, dark): 0.1572±0.01881
- carbon dioxide production (stats entry 2k) ([1]; 10mpk, full day): 3120
- energy expenditure (Fig. S8b) ([1]; 10mpk, full day): 19.14±0.6082
- oxygen consumption (stats entry 2j) ([1]; 10mpk, full day): 3593
- respiratory exchange ratio (stats entry 2l) ([1]; 10mpk, full day): 0.857
- total drink consumption (Fig. S8d) ([1]; 10mpk, full day): 0.0776±0.01206
- total food consumption (Fig. S8c) ([1]; 10mpk, full day): 0.1288±0.0108
- carbon dioxide production (stats entry 2k) ([1]; 10mpk, light): 2900
- energy expenditure (Fig. S8b) ([1]; 10mpk, light): 18.91±1.057
- oxygen consumption (stats entry 2j) ([1]; 10mpk, light): 3753
- respiratory exchange ratio (stats entry 2l) ([1]; 10mpk, light): 0.831
- total drink consumption (Fig. S8d) ([1]; 10mpk, light): 0.05856±0.0075
- total food consumption (Fig. S8c) ([1]; 10mpk, light): 0.09464±0.0095
- mean intensity of Hbβ in GFAP-positive areas ([2]; A53T contra+KDS12025, Fig. 5p): 46.92±4.141
- mean intensity of Hbβ in TH-positive areas ([2]; A53T contra+KDS12025, Fig. 5q): 61.58±2.401
- mean intensity of GFAP in GFAP-positive area ([2]; A53T contra+KDS12025, Fig. S12c): 82.69±4.999
- GFAP-positive area in the SNpc ([2]; A53T contra+KDS, Fig. 4j): 25.28±2.892
- mean GABA intensity in GFAP-positive areas ([2]; A53T contra+KDS): 10.18±1.460
- TH-positive neuron counts per hemisphere ([2]; A53T contra+KDS): 23.20±2.685
- mean intensity of Hbβ in GFAP-positive areas ([2]; A53T ipsi+KDS12025, Fig. 5p): 34.98±2.564
- mean intensity of Hbβ in TH-positive areas ([2]; A53T ipsi+KDS12025, Fig. 5q): 55.65±3.378
- mean intensity of GFAP in GFAP-positive area ([2]; A53T ipsi+KDS12025, Fig. S12c): 106.7±3.202
- GFAP-positive area in the SNpc ([2]; A53T ipsi+KDS, Fig. 4j): 34.18±3.214
- mean GABA intensity in GFAP-positive areas ([2]; A53T ipsi+KDS): 5.531±0.9318
- TH-positive neuron counts per hemisphere ([2]; A53T ipsi+KDS): 20.96±2.68
- GFAP-positive area in the SNpc ([2]; A53T+shHbβ::CaMKII+KDS12025, Fig. 6r): 37.16±3.6
- number of TH-positive neurons per hemisphere ([2]; A53T+shHbβ::CaMKII+KDS12025, Fig. 6s): 18.5±1.3
- GFAP-positive area in the SNpc ([2]; A53T+shHbβ::GFAP+KDS12025, Fig. 6r): 42.7±5.05
- number of TH-positive neurons per hemisphere ([2]; A53T+shHbβ::GFAP+KDS12025, Fig. 6s): 16.75±2.75
